Each structure is given as a SMILES string. A value given as a limit tells only on which side of the number the result lay.

In this test the target is T1, HCV NS3 protease domain (Hepatitis C virus genotype 1b, UniProt Q9WMX2).
T1 construct: The first 181 amino acids of NS3 (residues 1027-1207 of the viral polyprotein); hexa-histidine (C); made in house; host or cells: E. coli BL21/DE3 pLysS
T1 sequence (Q9WMX2 1027-1207, other chains not shown): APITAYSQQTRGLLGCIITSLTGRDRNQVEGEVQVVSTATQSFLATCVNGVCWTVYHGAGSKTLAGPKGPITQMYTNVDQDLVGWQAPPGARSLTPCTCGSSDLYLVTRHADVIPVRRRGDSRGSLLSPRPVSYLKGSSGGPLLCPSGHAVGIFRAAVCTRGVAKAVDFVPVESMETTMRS
As to the kind of experiment: biochemical. The following applies: Enzyme Assay 1 (HCV NS3 Protease Domain Peptide Cleavage Assay) activity, apparent Ki class.
Turning to `CCC[C@H](NC(=O)[C@@H]1C[C@]2(CC(c3ccc4c(c3)OCO4)=NO2)CN1C(=O)[C@@H](NC(=O)[C@@H](NC(=O)c1cnccn1)C(C)(C)C)C(C)(C)C)C(=O)C(=O)NC1CC1` [Compound 450], the Ki was below 100 nM. With `CCC[C@H](NC(=O)[C@@H]1C[C@]2(CC(c3ccc(F)c(C(F)(F)F)c3)=NO2)CN1C(=O)O[C@H]1CCOC1)C(=O)C(=O)NC1CC1` [Compound 451], the Ki was above 500 nM. Next, `C#CCCC(NC(=O)[C@@H]1C[C@]2(CC(c3cccc(Cl)c3)=NO2)CN1C(=O)[C@@H](NC(=O)CC1CCCCC1)C(C)(C)C)C(=O)C(=O)NC1CC1` (stereo partly drawn) [Compound 453]: 100 to 500 nM.

As for `CCC[C@H](NC(=O)[C@@H]1C[C@]2(CC(c3cccc(Cl)c3)=NO2)CN1C(=O)[C@@H](NC(=O)CSc1cccc2cccnc12)C(C)(C)C)C(=O)C(=O)NC1CC1` [Compound 454], the Ki lay within 100 to 500 nM. To `CCC[C@H](NC(=O)[C@@H]1C[C@@]2(CC(c3cc(F)c(F)c(F)c3)=NO2)CN1C(=O)[C@@H](NC(=O)O[C@H]1CCOC1)C(C)(C)C)C(=O)C(=O)NC1CC1` [Compound 455] belongs above 500 nM; to `CCC[C@H](NC(=O)[C@@H]1C[C@]2(CC(c3ccc4c(c3)OCCO4)=NO2)CN1C(=O)[C@@H](NC(=O)O[C@H]1CCOC1)C(C)(C)C)C(=O)C(=O)NC1CC1` [Compound 456], 100 to 500 nM; to `CCC[C@H](NC(=O)[C@@H]1C[C@]2(CC(c3cccc(Cl)c3)=NO2)CN1C(=O)[C@@H](NC(=O)OCCc1ccccc1)C(C)(C)C)C(=O)C(=O)NC1CC1` [Compound 463], above 500 nM. For the compound `CCC[C@H](NC(=O)[C@@H]1C[C@]2(CC(c3ccc4c(c3)OCO4)=NO2)CN1C(=O)c1ccc[nH]1)C(=O)C(=O)NC1CC1` [Compound 464], the Ki was above 500 nM. In the case of `CCC[C@H](NC(=O)[C@@H]1C[C@]2(CC(c3cccc(Cl)c3)=NO2)CN1C(=O)[C@@H](NC(=O)OCc1ccc(C)cc1)C(C)(C)C)C(=O)C(=O)NC1CC1` [Compound 471], the Ki lay in the range of 100 to 500 nM. On to `CCC[C@H](NC(=O)[C@@H]1C[C@]2(CC(c3ccco3)=NO2)CN1C(=O)[C@@H](NC(=O)OC1CCOC1)C(C)(C)C)C(=O)C(=O)NC1CC1` (stereo partly drawn) [Compound 472], for which the Ki was above 500 nM. To `CCC[C@H](NC(=O)[C@@H]1C[C@]2(CC(c3cccc(Cl)c3)=NO2)CN1C(=O)[C@@H](NC(=O)C(C)Cn1ccc(C)n1)C(C)(C)C)C(=O)C(=O)NC1CC1` (stereo partly drawn) [Compound 474] belongs above 500 nM. Take `CCC[C@H](NC(=O)[C@@H]1C[C@]2(CC(c3cccc(Cl)c3)=NO2)CN1C(=O)[C@@H](NC(=O)CC(C)(O)C(F)(F)F)C(C)(C)C)C(=O)C(=O)NC1CC1` (stereo partly drawn) [Compound 475]: the Ki was 100 to 500 nM. Next, `CCC[C@H](NC(=O)[C@@H]1C[C@]2(CC(c3cccc(Cl)c3)=NO2)CN1C(=O)[C@@H](NC(=O)N[C@H](COC)C(C)(C)C)C(C)(C)C)C(=O)C(=O)NC1CC1` [Compound 477]: below 100 nM; `CCC[C@H](NC(=O)[C@@H]1C[C@]2(CC(c3ccc(Cl)s3)=NO2)CN1C(=O)[C@@H](NC(=O)CC1CCCCC1)C(C)(C)C)C(=O)C(=O)NC1CC1` [Compound 478]: 100 to 500 nM; `CCC[C@H](NC(=O)[C@@H]1C[C@]2(CC(c3cccc(C(=O)O)c3)=NO2)CN1C(=O)[C@@H](NC(=O)O[C@H]1CCOC1)C(C)(C)C)C(=O)C(=O)NC1CC1` [Compound 481]: above 500 nM. To `CCC[C@H](NC(=O)[C@@H]1C[C@]2(CC(c3cccc(Cl)c3)=NO2)CN1C(=O)[C@@H](NC(=O)CCC(=O)O)C(C)(C)C)C(=O)C(=O)NC1CC1` [Compound 484] belongs 100 to 500 nM.

Regarding `CCC[C@H](NC(=O)[C@@H]1C[C@]2(CC(c3cccc(Cl)c3)=NO2)CN1C(=O)[C@@H](NC(=O)CC1CC(=O)c2ccc(OC)cc21)C(C)(C)C)C(=O)C(=O)NC1CC1` (stereo partly drawn) [Compound 487], the Ki lay in the range of 100 to 500 nM. To `CCC[C@H](NC(=O)[C@@H]1C[C@]2(CC(c3ccc(Cl)c(C)c3)=NO2)CN1C(=O)[C@@H](NC(=O)CC1CCOCC1)C(C)(C)C)C(=O)C(=O)NC1CC1` [Compound 490] belongs 100 to 500 nM; to `CCC[C@H](NC(=O)[C@@H]1C[C@]2(CC(c3cccc(Cl)c3)=NO2)CN1C(=O)[C@@H](NC(=O)NC(C)(C)C)C(C)(C)C)C(=O)C(=O)NC1CC1` [Compound 492], below 100 nM. With `CCC[C@H](NC(=O)[C@@H]1C[C@]2(CC(c3cc(Cl)c(OC)c(OC)c3)=NO2)CN1C(=O)[C@@H](NC(=O)CC1CCCCC1)C(C)(C)C)C(=O)C(=O)NC1CC1` [Compound 494], the Ki is below 100 nM. Next, `CCC[C@H](NC(=O)[C@@H]1C[C@]2(CC(c3nn(C)cc3Cl)=NO2)CN1C(=O)[C@@H](NC(=O)CC1CCCCC1)C(C)(C)C)C(=O)C(=O)NC1CC1` [Compound 495]: above 500 nM; `CCC[C@H](NC(=O)[C@@H]1C[C@]2(CC(c3cccc(Cl)c3)=NO2)CN1C(=O)[C@@H](NC(=O)NCc1cccnc1)C(C)(C)C)C(=O)C(=O)NC1CC1` [Compound 497]: 100 to 500 nM; `CCC[C@H](NC(=O)[C@@H]1C[C@]2(CC(c3cc(F)cc(C(F)(F)F)c3)=NO2)CN1C(=O)[C@@H](NC(=O)O[C@H]1CCOC1)C(C)(C)C)C(=O)C(=O)NC1CC1` [Compound 498]: 100 to 500 nM.

Take `CCC[C@H](NC(=O)[C@@H]1C[C@]2(CC(c3cccc(Cl)c3)=NO2)CN1C(=O)[C@@H](NC(=O)[C@H]1CC[C@H](OC)CC1)C(C)(C)C)C(=O)C(=O)NC1CC1` [Compound 503]: the Ki was in the range of 100 to 500 nM. Next, `CCC[C@H](NC(=O)[C@@H]1C[C@]2(CC(c3cccc(Cl)c3)=NO2)CN1C(=O)[C@@H](NC(=O)CCc1cccnc1)C(C)(C)C)C(=O)C(=O)NC1CC1` [Compound 504]: 100 to 500 nM; `CCC[C@H](NC(=O)[C@@H]1C[C@]2(CC(c3cccc(Cl)c3)=NO2)CN1C(=O)[C@@H](NC(=O)CCC1NC(=O)NC1=O)C(C)(C)C)C(=O)C(=O)NC1CC1` (stereo partly drawn) [Compound 505]: 100 to 500 nM. Next, `CCC[C@H](NC(=O)[C@@H]1C[C@]2(CC(c3cccc(Cl)c3)=NO2)CN1C(=O)[C@@H](NC(=O)Cn1ccc2ncccc21)C(C)(C)C)C(=O)C(=O)NC1CC1` [Compound 506]: above 500 nM; `CCC[C@H](NC(=O)[C@@H]1C[C@@]2(CC(c3cccc(C(F)(F)F)c3)=NO2)CN1C(=O)[C@@H](NC(=O)O[C@H]1CCOC1)C(C)(C)C)C(=O)C(=O)NC1CC1` [Compound 509]: above 500 nM; `CCC[C@H](NC(=O)[C@@H]1C[C@]2(CC(c3ccc([N+](=O)[O-])cc3)=NO2)CN1C(=O)[C@@H](NC(=O)O[C@H]1CCOC1)C(C)(C)C)C(=O)C(=O)NC1CC1` [Compound 511]: 100 to 500 nM. Next, `CCC[C@H](NC(=O)[C@@H]1C[C@]2(CC(c3ccccc3)=NO2)CN1C(=O)OCC1c2ccccc2-c2ccccc21)C(=O)C(=O)NC1CC1` [Compound 514]: above 500 nM.

As for `CCC[C@H](NC(=O)[C@@H]1C[C@]2(CC(c3cccc(Cl)c3)=NO2)CN1C(=O)[C@@H](NC(=O)OC1CCCOC1)C(C)(C)C)C(=O)C(=O)NC1CC1` (stereo partly drawn) [Compound 515], the Ki was in the range of 100 to 500 nM.

Consider `CCC[C@H](NC(=O)[C@@H]1C[C@]2(CC(c3ccc(OC)cc3OC)=NO2)CN1C(=O)[C@@H](NC(=O)O[C@H]1CCOC1)C(C)(C)C)C(=O)C(=O)NC1CC1` [Compound 516], for which the Ki was above 500 nM. To `CCC[C@H](NC(=O)[C@@H]1C[C@]2(CC(c3cccc(Cl)c3)=NO2)CN1C(=O)[C@@H](NC(=O)[C@@H]1CCC(=O)N1Cc1cccc(C)c1)C(C)(C)C)C(=O)C(=O)NC1CC1` [Compound 518] belongs below 100 nM. For the compound `CCC[C@H](NC(=O)[C@@H]1C[C@]2(CC(c3cc(C)cc(C)c3)=NO2)CN1C(=O)[C@@H](NC(=O)O[C@H]1CCOC1)C(C)(C)C)C(=O)C(=O)NC1CC1` [Compound 519], the Ki was in the range of 100 to 500 nM. Next, `CCC[C@H](NC(=O)[C@@H]1C[C@]2(CC(c3ccccc3)=NO2)CN1C(=O)[C@@H](NC(=O)OCc1ccccc1)C(C)(C)C)C(=O)C(=O)NC1CC1` [Compound 520]: above 500 nM; `CCC[C@H](NC(=O)[C@@H]1C[C@]2(CC(c3cccc(Cl)c3)=NO2)CN1C(=O)[C@@H](NC(=O)C1CCOCC1)C(C)(C)C)C(=O)C(=O)NC1CC1` [Compound 523]: 100 to 500 nM.

With `CCC[C@H](NC(=O)[C@@H]1C[C@]2(CC(c3ccc(OC(F)(F)F)cc3)=NO2)CN1C(=O)O[C@H]1CCOC1)C(=O)C(=O)NC1CC1` [Compound 524], the Ki was above 500 nM. To `CCC[C@H](NC(=O)[C@@H]1C[C@]2(CC(c3cccc(OC)c3)=NO2)CN1C(=O)[C@@H](NC(=O)CC1CCOCC1)C(C)(C)C)C(=O)C(=O)NC1CC1` [Compound 525] belongs above 500 nM; to `CCC[C@H](NC(=O)[C@@H]1C[C@]2(CC(c3cccc(Cl)c3)=NO2)CN1C(=O)[C@@H](NC(=O)OCc1ccccc1)C(C)(C)C)C(=O)C(=O)NC1CC1` [Compound 526], 100 to 500 nM; to `CCC[C@H](NC(=O)[C@@H]1C[C@]2(CC(c3ccc4c(c3)OCO4)=NO2)CN1C(=O)[C@@H](NC(=O)O[C@H]1CCOC1)C(C)(C)C)C(=O)C(=O)NC1CC1` [Compound 527], 100 to 500 nM. On to `CCC[C@H](NC(=O)[C@@H]1C[C@]2(CC(c3cccc(Cl)c3)=NO2)CN1C(=O)[C@@H](NC(=O)CCn1ncc2ccccc21)C(C)(C)C)C(=O)C(=O)NC1CC1` [Compound 528], for which the Ki lay within 100 to 500 nM.

For the compound `CCC[C@H](NC(=O)[C@@H]1C[C@]2(CC(c3ccc(O)cc3)=NO2)CN1C(=O)[C@@H](NC(=O)O[C@H]1CCOC1)C(C)(C)C)C(=O)C(=O)NC1CC1` [Compound 530], the Ki was above 500 nM.

As for `CCC[C@H](NC(=O)[C@@H]1C[C@]2(CC(c3cccc(Cl)c3)=NO2)CN1C(=O)[C@@H](NC(=O)CC(C)C)C(C)(C)C)C(=O)C(=O)NC1CC1` [Compound 532], the Ki is above 500 nM.

In the case of `CCC[C@H](NC(=O)[C@@H]1C[C@]2(CC(c3ccc(F)cc3)=NO2)CN1C(=O)OCC1c2ccccc2-c2ccccc21)C(=O)C(=O)NC1CC1` [Compound 533], the Ki is above 500 nM. To `CCC[C@H](NC(=O)[C@@H]1C[C@]2(CC(C(=O)c3ccccc3)=NO2)CN1C(=O)[C@@H](NC(=O)O[C@H]1CCOC1)C(C)(C)C)C(=O)C(=O)NC1CC1` [Compound 535] belongs 100 to 500 nM.

The values above are taken from patent publication US7964624B1, “Inhibitors of serine proteases” (priority 2005, dated 2011).
